No end group written: not given here.
Tests used:
Type in all cases: cell-based
[1] = system: Human peripheral neutrophils; assay: Spontaneous oxidative activation of neutrophils (DCFH-DA oxidation); settings: for rate of oxidation of the DCFH probe with soluble PAR ligands: soluble peptides given as 100 mM (FIG. 5); for spontaneous oxidation of the DCFH probe with protease inhibitors: α1 antichymotrypsin and elafin printed as 10 mM (FIG. 4)
Source text: (§1) Human peripheral neutrophils were isolated from heparinized blood donated by healthy volunteers according to a protocol approved by the University of Illinois Institutional Review Board. The cells were isolated using a Histopaque™ gradient (Sigma) according to the manufacturer's instructions. Cell viability and identity was confirmed by trypan blue staining. Live cells and neutrophils represented at least 95% of isolated leukocytes.
(§2) The method for the measurement of oxidative activation of neutrophils was based on the ROS-dependent oxidation of DCFH-DA to DCF and was adapted from Ciapetti et al. DCFH-DA crosses the cell membrane and is hydrolyzed by nonspecific esterases to nonfluorescent DCFH. Its oxidation by ROS results in the generation of highly fluorescent DCF [30]. DCFH-DA is therefore a widely accepted probe for the measurement of an overall index of oxidative activity. DCFH-DA was purchased from Calbiochem (Madison, Wis.). The assays were run in clear bottom black 96-well plate. “Edge effects” (a higher fluorescence in edge wells) were avoided by using only center wells. Briefly, 50 μl of Dulbecco's Phosphate Buffered Saline (DPBS) containing DCFH-DA was added to each well with the final concentration of […]. S100 proteins or PKC inhibitors were diluted in the wells. Just before a baseline reading 100,000 neutrophils in 50 μl PBS were placed in each well. 96-well plates were incubated at 37° C. and 5% CO2 and were read at baseline (immediately after cell addition to the plates) and at indicated time points in a Spectra Max Gemini XS fluorescent plate reader. The excitation wavelength was 485 and the reading was done at 530 nm. Wells with no DCFH-DA were used to measure background fluorescence which was subtracted from each reading. Controls with no cells were also analyzed and display no increased fluorescence over time. All assays were conducted in triplicate or quadruplicate wells.
In order to avoid differences between donors, experimental procedures and plate to plate variation, all experimental conditions and statistical analysis were run within one plate inclusive of all positive and negative controls. Single sample t-tests were calculated to test the S100A8, S100A9 and combined proteins in comparison to the control wells with alpha set to ≦0.05 to determine statistical significance. Comparisons between the S100A8, S100A9 and combined proteins were calculated with two sample t-tests using SPSS (SPSS Inc., Chicago, Ill.) with alpha set to ≦0.05 to determine statistical relevance.

[2] = system: Human peripheral neutrophils; assay: LPS stimulated neutrophil oxidative metabolism (DCFH-DA oxidation); settings: 10 μM; 10 μg/ml LPS
Source text: as §1, §2

thrombin receptors = assay: Calcium flux and thrombin-S100A8/A9 cross-desensitization in Chem-3 cells
Method: Screening for S100A8 and S100A9 activity on thrombin receptors including thrombin receptor desensitization were conducted with calcium flux assays in Chem 3 and PAR-4 expressing Chem.-1 cells by Millipore's GPCRProfiler(R) Service (Millipore, St. Charles, Mo.; see website Millipore website on the internet).

Molecule: CCCCCCCCCCCCCC(=O)O[C@@H]1[C@@H](C)[C@@]2(O)[C@@H](C=C(CO)C[C@]3(O)C(=O)C(C)=C[C@@H]23)[C@@H]2C(C)(C)[C@]12OC(C)=O [PMA, phorbol 12-myristate 13-acetate, reference compound]
- rate of DCFH oxidation by a PKC activator ([1]; 1 μM PMA): significantly accelerated the rate of DCFH oxidation

Molecule: COc1ccccc1NC(=O)Nc1nc(-c2cccnc2)nc2ccccc12 [VUF5574, N-(2-methoxyphenyl)-N′-[2-(3-pyridinyl)-4-quinazolinyl]-urea, reference compound]
- effect on anti-oxidative effect of S100A8, spontaneous oxidative metabolism ([1]; 2.5 μg/ml S100A8, 1 hour): produces a dose sensitive inhibition the anti-oxidative effect of S100A8 on neutrophil spontaneous oxidative metabolism
- effect on anti-oxidative effect of S100A8 and S100A9, LPS exposed neutrophils [2]: This anti-oxidative effect was countered

Molecule: GYPGQV-NH2 [PAR-4, reference compound]
- rate of oxidation of the DCFH probe with soluble PAR ligands [1]: resulted in a significantly accelerated rate of oxidation of the DCFH probe

Molecule: SLIGKV-NH2 [PAR-2, reference compound]
- rate of oxidation of the DCFH probe with soluble PAR ligands [1]: not PAR-1, PAR-2 or PAR-3

Molecule: TFLLRN [PAR-1, reference compound]
- rate of oxidation of the DCFH probe with soluble PAR ligands [1]: not PAR-1, PAR-2 or PAR-3

Molecule: TFRGAP-NH2 [PAR-3, reference compound]
- rate of oxidation of the DCFH probe with soluble PAR ligands [1]: not PAR-1, PAR-2 or PAR-3

Molecule: elafin: inhibitor of PR3 and elastase (AQEPVKGPVSTKPGSCPIILIRCAMLNPPNRCLKDTDCPGIKKCCEGSCGMACFVPQ; ends and bridges not checked; cysteine pairing not given here; UniProt P19957 61-117, looked up) [reference compound]
- spontaneous oxidation of the DCFH probe with protease inhibitors [1]: no effect on DCFH oxidation

Molecule: thrombin [reference compound]
- desensitization of Chem-3 cells to S100A8 or S100A9 stimulation (thrombin receptors; 10 nM thrombin first, then 10 μM S100A8 or 10 μM S100A9): resulted in a desensitization of Chem-3 cells to further stimulation
- calcium flux in Chem-3 cells (thrombin receptors; each alone): trigger calcium flux in Chem-3 cells in a dose dependent manner

B1: α1 antichymotrypsin: α1-Antichymotrypsin from human plasma; inhibits cathepsin G (protein)
chain: HPNSPLDEENLTQENQDRGTHVDLGLASANVDFAFSLYKQLVLKAPDKNVIFSPLSISTALAFLSLGAHNTTLTEILKGLKFNLTETSEAEIHQSFQHLLRTLNQSSDELQLSMGNAMFVKEQLSLLDRFTEDAKRLYGSEAFATDFQDSAAAKKLINDYVKNGTRGKITDLIKDLDSQTMMVLVNYIFFKAKWEMPFDPQDTHQSRFYLSKKKWVMVPMMSLHHLTIPYFRDEELSCTVVELKYTGNASALFILPDQDKMEEVEAMLLPETLKRWRDSLEFREIGELYLPKFSISRDYNLNDILLQLGIEEAFTSKADLSGITGARNLAVSQVVHKAVLDVFEEGTEASAATAVKITLLSALVETRTIVRFNRPFLMIIVPTDTQNIFFMSKVTNPKQA
- spontaneous oxidation of the DCFH probe with protease inhibitors [1]: caused a marked and significant reduction in the oxidation of the DCFH probe

B2: calprotectin: mixture of S100A8 and S100A9 at a 1:1 weight ratio referred to as calprotectin (protein)
chain 1: MLTELEKALNSIIDVYHKYSLIKGNFHAVYRDDLKKLLETECPQYIRKKGADVWFKELDINTDGAVNFQEFLILVIKMGVAAHKKSHEESHKE
chain 2: MTCKMSQLERNIETIINTFHQYSVKLGHPDTLNQGEFKELVRKDLQNFLKKENKNEKVIEHIMEDLDTNADKQLSFEEFIMLMARLTWASHEKMHEGDEGPGHHHKPGLGEGTP
- rate of spontaneous oxidation of the DCFH-DA probe ([1]; 2.5 to 10 μg/ml of protein, followed over time, p <0.001 to <0.05): reduced the rate at which spontaneous oxidation of the DCFH-DA probe occurred in a dose dependent manner
- oxidative metabolism (fluorescence emission of DCFH-DA probe) ([1]; 1 h time point, all concentrations tested, P<0.05 compared to control): significantly inhibited oxidative metabolism at all concentrations tested

— patent US8173598B2, “Myeloid protein activation of anti-inflammatory and anti-hypoxic pathway” (The Board of Trustees of the University of Illinois, priority 2008, dated 2012)
